Results as given in US20220324835A1 (Nurix Therapeutics, Inc., priority 2018, published 2022).

Key:
T-cell [1] = test: IL-2 secretion from T-cells co-stimulated with anti-CD3 and anti-CD28 antibody (Biological Example 2); format: cell-based, human; conditions: Homo sapiens, T-cell, read-out: IL-2 secretion Anti-CD3/Anti-CD28 stimulation; for fold induction at 0.3 µM: 0.3 μM Cbl-b inhibitor; for fold induction at 1 µM: 1 μM Cbl-b inhibitor; for fold induction at 4 µM: 4 μM Cbl-b inhibitor
Source text: (§1) Methods for experimentally determining increased T-cell activation, increased T-cell proliferation, decreased T-cell exhaustion, and/or decreased T-cell tolerance are well known in the art.
(§2) Modulation of activity of an immune cell, such as a T-cell, a B cell or a NK cell can be measured by determining a baseline value for a parameter of interest (e.g., cytokine secretion). […] A reference value then is obtained for T-cell activation after contacting or administering said Cbl-b inhibitor. The reference value is compared to the baseline value in order to determine the amount of T-cell activation due to contact or administration of the Cbl-b inhibitor or composition thereof. […] Immune cell activation can be assessed by measuring biological markers of activation such as increased cytokine secretion, increased cell surface expression of activation markers (e.g., cell surface markers), or increased phosphorylation of proteins in a downstream signaling pathway. The fold over baseline value that indicates immune cell activation can be determined for the parameter being tested and the conditions under which the immune cell were treated. For example, for measuring T-cell activation, a baseline value can be obtained from T-cells stimulated with anti-CD3 antibody in combination with anti-CD28 antibody, wherein the cells are not incubated with a Cbl-b inhibitor. […] A positive response for immune cell activation can then be determined by the obtained reference value. […]

T-cell [2] = test: IL-2 secretion from T-cells stimulated with anti-CD3 antibody alone (Biological Example 2); format: cell-based, human; conditions: T-cell, read-out: IL-2 secretion Anti-CD3 stimulation; for fold induction at 1 µM: 1 μM Cbl-b inhibitor; for fold induction at 8 µM: 8 μM Cbl-b inhibitor
Source text: as §1
(§3) Modulation of activity of an immune cell, such as a T-cell, a B cell or a NK cell can be measured by determining a baseline value for a parameter of interest (e.g., cytokine secretion). […] A reference value then is obtained for T-cell activation after contacting or administering said Cbl-b inhibitor. The reference value is compared to the baseline value in order to determine the amount of T-cell activation due to contact or administration of the Cbl-b inhibitor or composition thereof. […] Immune cell activation can be assessed by measuring biological markers of activation such as increased cytokine secretion, increased cell surface expression of activation markers (e.g., cell surface markers), or increased phosphorylation of proteins in a downstream signaling pathway. The fold over baseline value that indicates immune cell activation can be determined for the parameter being tested and the conditions under which the immune cell were treated. For example, for measuring T-cell activation, a baseline value can be obtained from T-cells stimulated with anti-CD3 antibody in combination with anti-CD28 antibody, wherein the cells are not incubated with a Cbl-b inhibitor. […] A positive response for immune cell activation can then be determined by the obtained reference value.
(§4) In some embodiments, a baseline value can be obtained from T-cells stimulated with anti-CD3 antibody alone, wherein the cells are not incubated with a Cbl-b inhibitor. In some embodiments, a positive response for T-cell activation as measured by cytokine secretion (e.g., IL-2 secretion) by T-cells stimulated with anti-CD3 antibody alone in the presence of a Cbl-b inhibitor is at least 0.1-fold over the baseline value for cytokine secretion (e.g., IL-2 secretion) obtained from T-cells stimulated with anti-CD3 antibody alone in the absence of a Cbl-b inhibitor. In some embodiments, a positive response for T-cell activation as measured by surface marker expression (e.g., CD25 surface marker staining) by T-cells stimulated with anti-CD3 antibody alone in the presence of a Cbl-b inhibitor is at least 0.6-fold over the baseline value for surface marker expression (e.g., CD25 surface marker staining) obtained from T-cells stimulated with anti-CD3 antibody alone in the absence of a Cbl-b inhibitor.

T-cell [3] = test: CD25 cell surface staining on T-cells stimulated with anti-CD3 antibody alone (Biological Example 2); format: cell-based, human; conditions: T-cell, read-out: CD25 staining Anti-CD3 stimulation; for fold induction at 1 µM: 1 μM Cbl-b inhibitor; for fold induction at 8 µM: 8 μM Cbl-b inhibitor
Source text: as §1, §3, §4

Cbl-b [4] = biological target: T1, Cbl-b (Homo sapiens, UniProt Q13191); test: Cbl-b inhibition assay (Cbl-b activity assay, FRET, Biological Example 1; 100 mM NaCl, 60 nM Src kinase); format: biochemical; conditions: upper bound stated in text lists; read-out: IC50 values in the Cbl-b inhibition assay of Biological Example 1
T1 sequence (Q13191 36-427): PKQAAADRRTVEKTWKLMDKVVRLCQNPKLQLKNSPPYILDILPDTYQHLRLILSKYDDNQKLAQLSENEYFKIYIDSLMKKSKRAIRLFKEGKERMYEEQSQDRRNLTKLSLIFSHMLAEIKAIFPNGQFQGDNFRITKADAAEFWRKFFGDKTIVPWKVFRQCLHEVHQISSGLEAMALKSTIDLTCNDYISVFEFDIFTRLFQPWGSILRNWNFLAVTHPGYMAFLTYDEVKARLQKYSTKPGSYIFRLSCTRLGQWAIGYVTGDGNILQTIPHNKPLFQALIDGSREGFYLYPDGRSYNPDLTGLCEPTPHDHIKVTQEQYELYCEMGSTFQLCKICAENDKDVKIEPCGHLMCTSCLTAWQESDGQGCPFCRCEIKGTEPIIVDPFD
Procedure, shortened: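 Here, the E2 UbcH5B, irreversibly linked to Bodipy-fluorescein ubiquitin, binds Cbl-b once Src kinase phosphorylates it; Cbl-b carries an N-terminal biotinylated Avi-tag captured by streptavidin-terbium. An absent FRET signal indicates inhibition.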

T-cell [5] = test: CD25 cell surface staining on T-cells co-stimulated with anti-CD3 and anti-CD28 antibody (Biological Example 2); format: cell-based, human; conditions: Homo sapiens, T-cell, read-out: CD25 staining Anti-CD3/Anti-CD28 stimulation; for fold induction at 0.3 µM: 0.3 μM Cbl-b inhibitor; for fold induction at 1 µM: 1 μM Cbl-b inhibitor; for fold induction at 4 µM: 4 μM Cbl-b inhibitor
Source text: as §1, §2

Cbl-b [6] = biological target: T1, Cbl-b; test: Cbl-b activity assay (Cbl-b inhibition assay), TR-FRET of Cbl-b interaction with UbcH5B-Ub; format: biochemical; conditions: assay buffer with 100 mM NaCl, 60 nM Src kinase; read-out: Cbl-b activity IC50
Procedure, shortened: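 UbcH5B (C85K) conjugated to N-terminally Bodipy-Fluorescein-labeled ubiquitin served as the fluorescent partner. After compound preincubation, Src kinase (60 nM) with 1 mM ATP and 5 mM MgCl2 (final) was added for 1.5 h, followed by a further 1 h incubation. Some values were obtained with 50 mM NaCl and 30 nM Src.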

[7] = fold change over baseline, primary human total T-cells
[8] = fold change over baseline (anti-CD3/anti-CD28 stimulated T-cells without inhibitor)
[9] = Homo sapiens, fold change over baseline (anti-CD3/anti-CD28 stimulated T-cells without inhibitor)

Structure (SMILES) | fold induction at 0.3 µM (T-cell [1]; [7]) | fold induction at 1 µM (T-cell [1]; [7]) | fold induction at 4 µM (T-cell [1]; [7]) | fold induction at 1 µM (T-cell [2]; [7]) | fold induction at 8 µM (T-cell [2]; [7]) | fold induction at 1 µM (T-cell [3]; [7]) | fold induction at 8 µM (T-cell [3]; [7]) | IC50 (Cbl-b [4]) | fold induction at 0.3 µM (T-cell [5]; [7]) | fold induction at 1 µM (T-cell [5]; [7]) | fold induction at 4 µM (T-cell [5]; [7]) | IC50 (Cbl-b [6]) | fold induction at 0.3 µM (T-cell [1]; [8]) | fold induction at 1 µM (T-cell [1]; [8]) | fold induction at 1 µM (T-cell [2]; [9]) | fold induction at 1 µM (T-cell [3]; [9]) | fold induction at 0.3 µM (T-cell [5]; [8]) | fold induction at 1 µM (T-cell [5]; [8])
C[C@@H](c1cccc(N2Cc3c(cccc3C(F)(F)F)C2=O)c1)[C@H](F)c1nncn1C (relative stereo) [Compound 293, trans-2-(3-(1-fluoro-1-(4-methyl-4H-1,2,4-triazol-3-yl)propan-2-yl)phenyl)-4-(trifluoromethyl)isoindolin-1-one] | 2.51 to 5 | 2.51 to 5 | 2.51 to 5 | 0.101 to 0.15 | > 0.201 | 0.601 to 0.8 | 0.801 to 1 | ≤ 0.5 µM | 1.01 to 1.3 | 1.01 to 1.3 | 1.01 to 1.3 | 0.1 to 0.3 µM |  |  |  |  |  | 
C[C@H]1CN(Cc2cc3c(c(C(F)(F)F)c2)CN(c2cccc(C4(Cc5nncn5C)COC4)c2)C3=O)CCO1 [Example 663a, (S)-2-(3-(3-((4-methyl-4H-1,2,4-triazol-3-yl)methyl)oxetan-3-yl)phenyl)-6-((2-methylmorpholino)methyl)-4-(trifluoromethyl)isoindolin-1-one] |  |  |  |  |  |  |  | ≤ 0.1 µM |  |  |  | < 0.1 µM | 5 to 7.5 | > 7.5 | > 0.201 | > 1 | 1.31 to 1.5 | 1.31 to 1.5
C[C@H](Cc1nncn1C)c1cccc(N2Cc3c(cc(-c4ccn[nH]4)cc3C(F)(F)F)C2=O)c1 [Compound 279, (R)-2-(3-(1-(4-methyl-4H-1,2,4-triazol-3-yl)propan-2-yl)phenyl)-6-(1H-pyrazol-5-yl)-4-(trifluoromethyl)isoindolin-1-one] | 2.51 to 5 | 5 to 7.5 | > 7.5 | > 0.201 | > 0.201 | > 1 | > 1 | ≤ 0.1 µM | 1.01 to 1.3 | 1.31 to 1.5 | 1.31 to 1.5 | < 0.1 µM |  |  |  |  |  | 
C[C@H](Cc1nncn1C)c1cccc(N2Cc3c(cc(C(=O)N4CC(O)C4)cc3C3CC3)C2=O)c1 [Compound 278, (R)-4-cyclopropyl-6-(3-hydroxyazetidine-1-carbonyl)-2-(3-(1-(4-methyl-4H-1,2,4-triazol-3-yl)propan-2-yl)phenyl)isoindolin-1-one] | 1.01 to 2.5 | 1.01 to 2.5 | 2.51 to 5 | 0.151 to 0.2 | > 0.201 | 0.801 to 1 | > 1 | ≤ 0.1 µM | 1.01 to 1.3 | 1.01 to 1.3 | 1.01 to 1.3 | < 0.1 µM |  |  |  |  |  | 
Cc1cc(C(=O)Nc2cccc(C3(Cc4nncn4C)COC3)c2)n2nccc2n1 [Example 596, 5-Methyl-N-(3-(3-((4-methyl-4H-1,2,4-triazol-3-yl)methyl)oxetan-3-yl)phenyl)pyrazolo[1,5-a]pyrimidine-7-carboxamide] |  |  |  |  |  |  |  | ≤ 0.3 µM |  |  |  | 0.1 to 0.3 µM | 1.01 to 2.5 | 1.01 to 2.5 | < 0.05 | 0.601 to 0.8 | 1.01 to 1.3 | 1.01 to 1.3
Cc1cc(C(=O)Nc2cccc([C@H](C)Cc3nncs3)c2)nc(C2CC2)n1 [Compound 334, (R)-N-(3-(1-(1,3,4-thiadiazol-2-yl)propan-2-yl)phenyl)-2-cyclopropyl-6-methylpyrimidine-4-carboxamide] | 1.01 to 2.5 | 2.51 to 5 | 5 to 7.5 | 0.101 to 0.15 | > 0.201 | 0.601 to 0.8 | 0.801 to 1 | ≤ 0.3 µM | 1.01 to 1.3 | 1.01 to 1.3 | 1.01 to 1.3 | 0.1 to 0.3 µM |  |  |  |  |  | 
Cn1cnnc1CC1(c2cccc(N3Cc4c(cc(N5CC(C(F)(F)F)C5)cc4C(F)(F)F)C3=O)c2)COC1 [Example 600, 2-(3-(3-((4-methyl-4H-1,2,4-triazol-3-yl)methyl)oxetan-3-yl)phenyl)-4-(trifluoromethyl)-6-(3-(trifluoromethyl)azetidin-1-yl)isoindolin-1-one] |  |  |  |  |  |  |  | ≤ 0.1 µM |  |  |  | < 0.1 µM | 2.51 to 5 | > 7.5 | 0.051 to 0.1 | > 1 | 1.01 to 1.3 | 1.01 to 1.3
Cn1cnnc1CC1(c2cccc(N3Cc4c(cc(CN5CCCc6c5cnn6C)cc4C(F)(F)F)C3=O)c2)COC1 [Example 651] |  |  |  |  |  |  |  | ≤ 0.1 µM |  |  |  | < 0.1 µM | 5 to 7.5 | > 7.5 | > 0.201 | > 1 | 1.01 to 1.3 | 1.01 to 1.3
CN1CC2CCC1CN2c1cc2c(c(C(F)(F)F)c1)CN(c1cccc([C@@](C)(F)C(F)(F)c3nncn3C)c1)C2=O (stereo partly drawn) [Example 565, 6-(5-Methyl-2,5-diazabicyclo[2.2.2]octan-2-yl)-2-(3-((R)-1,1,2-trifluoro-1-(4-methyl-4H-1,2,4-triazol-3-yl)propan-2-yl)phenyl)-4-(trifluoromethyl)isoindolin-1-one] |  |  |  |  |  |  |  | ≤ 0.1 µM |  |  |  | < 0.1 µM | 1.01 to 2.5 | 2.51 to 5 | 0.101 to 0.15 | > 1 | 1.31 to 1.5 | 1.31 to 1.5
